Each compound was assayed against T1, human Edg 1 receptor (Homo sapiens, UniProt P21453) (assay: GTP-γ-S assay using human Edg 1 receptors (scintillation proximity assay, CHO Flp-In membrane preparation)). Conditions: test compound at 10 μM; relative to high control 10 μM S1P = 100% activation; membranes of CHO Flp-In cells overexpressing human Edg 1; triplicate.
T1 construct: FLAG (N); expressed in transfected cells
T1 sequence (P21453 whole entry): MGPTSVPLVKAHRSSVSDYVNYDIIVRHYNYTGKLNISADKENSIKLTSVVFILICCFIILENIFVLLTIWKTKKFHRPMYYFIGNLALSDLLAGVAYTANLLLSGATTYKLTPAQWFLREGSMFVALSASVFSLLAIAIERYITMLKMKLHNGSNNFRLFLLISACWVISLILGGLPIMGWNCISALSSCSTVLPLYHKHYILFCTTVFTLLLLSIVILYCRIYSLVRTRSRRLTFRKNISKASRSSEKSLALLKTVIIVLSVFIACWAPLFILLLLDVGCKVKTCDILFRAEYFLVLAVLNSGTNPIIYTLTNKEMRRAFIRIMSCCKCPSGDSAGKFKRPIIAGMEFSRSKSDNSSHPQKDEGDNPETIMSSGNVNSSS
Assay type: biochemical
Excerpt: A) GTP-γ-S Assay Using Human Edg 1 Receptors
In order to determine the Edg 1 receptor activation by the compounds of the invention, a GTP-γ-S ((GTP-γ-S=guanosine 5′-[thio]triphosphate) assay for G-protein coupled receptor binding based on the scintillation proximity assay principle was used, employing a cell membrane preparation from a CHO Flp-In cell line which constitutively overexpresses the human Edg 1 receptor.
A membrane preparation was obtained by standard methods from the afore-described CHO Flp-In cell line constitutively overexpressing the human Edg 1 receptor. Briefly, the cryopreserved cells were taken in culture and grown until confluency in T175 cell culture flasks (Becton Dickinson, cat. no. 35 5001). Cell culture was stopped by washing with calcium-free phosphate-buffered saline (PBS; Gibco, cat. no. 14190), and cells were harvested with a rubber-policeman in 4° C. cold and calcium-free PBS supplemented with a protease inhibitor cocktail (complete protease inhibitor; Roche, cat. no. 1697498; 1 tablet per 50 ml) and subsequently centrifuged at 4° C. for 15 min at 1100×g (Heraeus Minifuge T). For cell lysis, the pellet was resuspended in a 4° C. cold hypotonic buffer consisting of 5 mM HEPES (Sigma-Aldrich, cat. no. H-0981), 1 mM EDTA (disodium salt; Merck, cat. No. 8418) supplemented with protease inhibitor cocktail (as above) in which cells were stored for another 15 min on ice. After lysis, cells were centrifuged at 4° C. for 10 min at 400×g (Heraeus Minifuge T). The pellet was disrupted in a Dounce homogenizer, diluted with the supernatant of the previous centrifugation and subsequently centrifuged at 4° C. for 10 min at 500×g (Heraeus Minifuge T) in order to separate nuclei and still intact cells from the membranes mainly present in the supernatant. The supernatant was then diluted in hypotonic buffer and centrifuged (Beckmann, Avanti J251) at approximately 18 600×g for 2 h at 4° C. After centrifugation, the membrane pellet was resuspended in a storing buffer consisting of 20 mM HEPES; 150 mM NaCl (Merck, cat. no. 6400), 1 mM EDTA (as above) supplemented with protease inhibitor cocktail (as above). […] Protein concentration of the membrane preparation was determined in a sample by means of a commercial protein assay (Bio-Rad, DC Protein Assay, cat. nos. 500-0113, 500-0114, 500-0115).
The Edg 1 membrane preparation obtained in (b) was employed in a commercially available scintillation proximity assay (SPA) kit for G-protein coupled receptor binding from Amersham Biosciences/GE Healthcare (code RPNQ0210), in which ligand-induced binding of ^35S-radiolabeled GTP-γ-S to the receptor-containing membrane, which is bound to scintillation beads, stimulates the emission of light and allows to quantify the in vitro activity of the Edg 1 agonistic compound. […]
In the case of Cc1cc(-c2nc3ccc(Oc4ccccc4F)nc3o2)cc(C)c1OC(C)C(=O)O (stereo not shown) [Example 2, 2-{4-[5-(2-Fluorophenoxy)oxazolo[5,4-b]pyridin-2-yl]-2,6-dimethylphenoxy}propionic acid], the “Edg 1 receptor activation in percent of the activation by 10 μM S1P (% activation)” value is reported as 51%.
For Cc1cc(-c2nc3ccc(Oc4ccccc4F)nc3o2)cc(C)c1OCC(C)(C)C(=O)O [Example 4, 3-{4-[5-(2-Fluorophenoxy)oxazolo[5,4-b]pyridin-2-yl]-2,6-dimethylphenoxy}-2,2-dimethylpropionic acid], the “Edg 1 receptor activation in percent of the activation by 10 μM S1P (% activation)” value was 86%.
With Cc1cc(-c2nc3ccc(Oc4ccccc4F)nc3o2)cc(C)c1OCC(=O)O [Example 1, {4-[5-(2-Fluorophenoxy)oxazolo[5,4-b]pyridin-2-yl]-2,6-dimethylphenoxy}acetic acid] the “Edg 1 receptor activation in percent of the activation by 10 μM S1P (% activation)” value was 74%.
With Cc1cc(-c2nc3ccc(Oc4ccccc4F)nc3o2)cc(C)c1OC(C)(C)C(=O)O [Example 3, 2-{4-[5-(2-Fluorophenoxy)oxazolo[5,4-b]pyridin-2-yl]-2,6-dimethylphenoxy}-2-methylpropionic acid] the “Edg 1 receptor activation in percent of the activation by 10 μM S1P (% activation)” value was 39%.
